Results taken from EP4699605A1, “USE OF NOVEL COMPOUND FOR TREATING INTRACTABLE DISEASES” (YJ Cerapeutics Inc., priority 2023, dated 2024).

What was measured:
[1] = test system: nerve injury animal models (SCI, LSS, SNI); experiment: Mechanical allodynia (von-Frey filaments, 50% paw withdrawal threshold) in nerve injury animal models; assay type: in vivo, Sprague-Dawley rats; details: intraperitoneal 5 mg/kg; at 1 hour after administration
Experimental: To be used as a central nerve injury animal model, a traumatic spinal cord injury (SCI) model was prepared (FIG. 1A). Specifically, 230 to 250 g of male adult Sprague-Dawley rats were anesthetized by intraperitoneal injection of chloral hydrate (500 mg/kg), and then the back and neck regions were shaved, and the spinal cord under the back and neck regions was exposed without damaging the dura mater, and a laminectomy was performed at T9 to T10 levels. To stabilize the spine, the spinous processes of T8 and T11 were fixed, and the spine was damaged by free-falling a 10 g weight from a height of 25 mm using an NYU impactor onto the back surface of the exposed spinal cord and then the rats were left in a temperature and humidity-controlled chamber overnight while covering the muscles and skin. After surgery, the rats were subcutaneously injected with a supplement solution (5 ml, lactated ringer) and injected with antibiotics (gentamicin, 5 mg/kg, intramuscular injection) once daily for 5 days. The body weight, remaining food, and the weight of water were confirmed and recorded for all animals, and the bladder was emptied twice daily by passive bladder massage until reflex micturition was established. At this time, a Sham group was a group that was subjected to only laminectomy without damage.
To be used as a peripheral nerve injury animal model, a lumbar spinal stenosis (LSS) model was prepared (FIG. 1B). Specifically, 260 to 280 g of adult male Sprague-Dawley rats were anesthetized with intraperitoneal injection of chloral hydrate (500 mg/kg), the back region was shaved, and then the spinal plate was exposed at L4 to S2 levels. After removing the ligamentous section between L4 and L5, a trapezoidal silicone block (1.00 mm long × 1.3 to 1.2 mm wide × 1.0 mm high) was inserted into the epidural space below the L5 and L6 spinal plates without damaging the dural sac. At this time, a Sham group was a group that was subjected to only posterior […] on the animal without inserting a silicone block.
To be used as a peripheral nerve injury animal model, a sciatic nerve injury (SNI) model was prepared (FIG. 1C). Specifically, 200 to 220 g of male adult Sprague-Dawley rats were anesthetized by intraperitoneal injection of chloral hydrate (500 mg/kg), and then three terminal branches (tibial, common peroneal, and sural nerves) of the right sciatic nerve were approached, and the tibia nerve and the peroneal nerve were tightly ligated with 4-0 silk, and neurectomy was performed at a distal 3 mm position of the ligation site. At this time, a Sham group was a group that exposed only the sciatic nerve without damage.
In order to confirm a neuropathic pain inhibitory effect of YJ102 (Chemical Formula 1), a compound of the present disclosure, in the three nerve injury animal models prepared in Example 1 above, rats having pain on week 3 (SNI model) or week 4 (SCI model and LSS model) after surgery were selected and administered orally (p.o.) at 10 mg/kg or 20 mg/kg of YJ102 dissolved in a solution of DMSO, methyl pyrrolidinone, and water (1 : 1.5 : 1), or intraperitoneally injected (i.p. injection) at 1, 2, or 5 mg/kg of YJ102. In a positive control group, gabapentin or pregabalin dissolved in saline was intraperitoneally injected at a concentration of 5 mg/kg, and in a Vehicle group, the same amount of a solution of DMSO, methyl pyrrolidinone, and water was administered. Thereafter, in order to measure mechanical allodynia, the rats were located at the bottom of a transparent plastic box (10 cm × 10 cm) on top of a wire mesh (3 mm × 3 mm) and subjected to an adaptation period for approximately 20 minutes. Von-Frey filaments were applied to the soles of both paws and used with stiff nylon von-Frey monofilament series ([…], Stoelting, WoodDale, IL, USA; equivalent in grams to 0.4, 0.6, 1.0, 2.0, 4.0, 6.0, 8.0 and 15.0) with logarithmic increases in tactile (mechanical) sensitivity. […]

[2] = Observation of sedation as a side effect at high doses; assay type: in vivo, rats

Compound	analgesic effect (mechanical allodynia) [1]	sedation as a side effect ([2]; 50 mg/kg)	sedation as a side effect ([2]; 20 mg/kg)
NCC1(CC(=O)O)CCCCC1 [gabapentin, reference compound]	significant analgesic effect	observed	–
CC(C)C[C@H](CN)CC(=O)O [pregabalin, reference compound]	significant analgesic effect	–	observed
